Measurements: publication PMC6268108, “Design, Practical Synthesis, and Biological Evaluation of Novel 6-(Pyrazolylmethyl)-4-quinoline-3-carboxylic Acid Derivatives as HIV-1 Integrase Inhibitors” (Molecules, 2012)

Tests used:
[1] = molecular target: T1, HIV-1 integrase (Human immunodeficiency virus type 1 group M subtype B, UniProt P04585); assay: HIV-1 integrase strand transfer (ST) activity assay; format: biochemical; settings: 1 h; read-out: IC50 (inhibition of strand transfer)
T1 construct: pre-incubated with 800 ng integrase at 37.8 °C in the reaction buffer
Method: A HIV-1 integrase strand transfer (ST) activity assay was carried out to test the inhibition effectiveness of our compounds as described previously with some minor modifications. Compounds diluted in DMSO were pre-incubated with 800 ng integrase at 37.8 °C in the reaction buffer in the absence of Mn^2+ for 10 min. Subsequently, 1.5 pmol donor DNA and 9 pmol target DNA were added and the reaction was initiated by the addition of 10 mmol/L Mn^2+ into the final reaction volume. The reactions were carried out at 37.8 °C for 1 h and subsequent detection procedure was applied to detect the assay signals.

Structure (SMILES)	melting point [°C]	inhibition at 100 µg/mL [1] [%]
Cc1nn(Cc2ccc3c(c2)c(=O)c(C(=O)O)cn3Cc2ccc([N+](=O)[O-])cc2)c(C)c1Br [Compound 16c, 1-(4-Nitrobenzyl)-6-((4-bromo-3,5-dimethyl-1H-pyrazol-1-yl)methyl)-4-oxo-1,4dihydroquinoline-3-carboxylic acid]	266 to 268	< 50
Cc1cc(C)n(Cc2ccc3c(c2)c(=O)c(C(=O)O)cn3Cc2ccc(F)cc2)n1 [Compound 15a, 1-(4-Fluorobenzyl)-6-((3,5-dimethyl-1H-pyrazol-1-yl)methyl)-4-oxo-1,4-dihydro-quinoline-3-carboxylic acid]	271 to 273	< 50
Cc1nn(Cc2ccc3[nH]cc(C(=O)O)c(=O)c3c2)c(C)c1Cl [Compound 11b, 6-((4-Chloro-3,5-dimethyl-1H-pyrazol-1-yl)methyl)-4-oxo-1,4-dihydroquinoline-3-carboxylic acid]	263 to 265	< 50
Cc1nn(Cc2ccc3c(c2)c(=O)c(C(=O)O)cn3Cc2ccc(F)cc2)c(C)c1Cl [Compound 15b, 1-(4-Fluorobenzyl)-6-((4-chloro-3,5-dimethyl-1H-pyrazol-1-yl)methyl)-4-oxo-1,4-dihydro-quinoline-3-carboxylic acid]	239 to 241	< 50
Cc1nn(Cc2ccc3c(c2)c(=O)c(C(=O)O)cn3CC(O)CO)c(C)c1Cl (stereo not drawn) [Compound 12b, 1-(2,3-Dihydroxypropyl)-6-((4-chloro-3,5-dimethyl-1H-pyrazol-1-yl)methyl)-4-oxo-1,4-dihydro-quinoline-3-carboxylic acid]	278 to 280	< 50
Cc1cc(C)n(Cc2ccc3c(c2)c(=O)c(C(=O)O)cn3CCCS)n1 [Compound 14a, 1-(3-Mercaptopropyl)-6-((3,5-dimethyl-1H-pyrazol-1-yl)methyl)-4-oxo-1,4-dihydroquinoline-3-carboxylic acid]	225 to 226	< 50
Cc1nn(Cc2ccc3c(c2)c(=O)c(C(=O)O)cn3CC(O)CO)c(C)c1Br (stereo not drawn) [Compound 12c, 1-(2,3-Dihydroxypropyl)-6-((4-bromo-3,5-dimethyl-1H-pyrazol-1-yl)methyl)-4-oxo-1,4-dihydroquino-line-3-carboxylic acid]	267 to 269	< 50
Cc1cc(C)n(Cc2ccc3c(c2)c(=O)c(C(=O)O)cn3CC(=O)O)n1 [Compound 13a, 1-(Carboxymethyl)-6-((3,5-dimethyl-1H-pyrazol-1-yl)methyl)-4-oxo-1,4-dihydroquinoline-3-carboxylic acid]	> 300	< 50
Cc1nn(Cc2ccc3c(c2)c(=O)c(C(=O)O)cn3CC(=O)O)c(C)c1Cl [Compound 13b, 1-(Carboxymethyl)-6-((4-chloro-3,5-dimethyl-1H-pyrazol-1-yl)methyl)-4-oxo-1,4-dihydroquinoline-3-carboxylic acid]	292 to 295	< 50
Cc1nn(Cc2ccc3c(c2)c(=O)c(C(=O)O)cn3CCCS)c(C)c1Cl [Compound 14b, 1-(3-Mercaptopropyl)-6-((4-chloro-3,5-dimethyl-1H-pyrazol-1-yl)methyl)-4-oxo-1,4-dihydro-quinoline-3-carboxylic acid]	238 to 240	< 50
Cc1nn(Cc2ccc3c(c2)c(=O)c(C(=O)O)cn3Cc2ccc(F)cc2)c(C)c1Br [Compound 15c, 1-(4-Fluorobenzyl)-6-((4-bromo-3,5-dimethyl-1H-pyrazol-1-yl)methyl)-4-oxo-1,4-dihydro-quinoline-3-carboxylic acid]	255 to 257	< 50
Cc1nn(Cc2ccc3[nH]cc(C(=O)O)c(=O)c3c2)c(C)c1Br [Compound 11c, 6-((4-Bromo-3,5-dimethyl-1H-pyrazol-1-yl)methyl)-4-oxo-1,4-dihydroquinoline-3-carboxylic acid]	253 to 256	< 50
Cc1cc(C)n(Cc2ccc3c(c2)c(=O)c(C(=O)O)cn3CC(O)CO)n1 (stereo not drawn) [Compound 12a, 1-(2,3-Dihydroxypropyl)-6-((3,5-dimethyl-1H-pyrazol-1-yl)methyl)-4-oxo-1,4-dihydroquinoline-3-carboxylic acid]	187 to 189	< 50
Cc1cc(C)n(Cc2ccc3[nH]cc(C(=O)O)c(=O)c3c2)n1 [Compound 11a, 6-((3,5-Dimethyl-1H-pyrazol-1-yl)methyl)-4-oxo-1,4-dihydroquinoline-3-carboxylic acid]	254 to 256	< 50
Cc1nn(Cc2ccc3c(c2)c(=O)c(C(=O)O)cn3CCCS)c(C)c1Br [Compound 14c, 6-((4-Bromo-3,5-dimethyl-1H-pyrazol-1-yl)methyl)-1-(3-mercaptopropyl)-4-oxo-1,4-dihydroquinoline-3-carboxylic acid]	231 to 233	< 50
Cc1nn(Cc2ccc3c(c2)c(=O)c(C(=O)O)cn3Cc2ccc([N+](=O)[O-])cc2)c(C)c1Cl [Compound 16b, 1-(4-Nitrobenzyl)-6-((4-chloro-3,5-dimethyl-1H-pyrazol-1-yl)methyl)-4-oxo-1,4-dihydroquinoline-3-carboxylic acid]	282 to 284	< 50
Cc1nn(Cc2ccc3c(c2)c(=O)c(C(=O)O)cn3CC(=O)O)c(C)c1Br [Compound 13c, 1-(Carboxymethyl)-6-((4-bromo-3,5-dimethyl-1H-pyrazol-1-yl)methyl)-4-oxo-1,4-dihydro-quinoline-3-carboxylic acid]	278 to 280	< 50
Cc1cc(C)n(Cc2ccc3c(c2)c(=O)c(C(=O)O)cn3Cc2ccc([N+](=O)[O-])cc2)n1 [Compound 16a, 1-(4-Nitrobenzyl)-6-((3,5-dimethyl-1H-pyrazol-1-yl)methyl)-4-oxo-1,4-dihydro-quinoline-3-carboxylic acid]	274 to 276	< 50
